Results published in PubChem BioAssay AID1963973 (Molecular Pharmacology Branch, DTP, NCI, 2024).

Test system: 883617-216-R-J1-PDC tumor spheroids, viability
Assay: Anticancer human tumor 883617-216-R-J1-PDC patient-derived bladder carcinoma cell line growth inhibition [PI3K]
Conditions: spheroids with HUVEC and MSC; for IC50: curve of first compound; for viability, T/C: stronger effect = lower value
Text: Combinatorial screen of targeted agents with the PI3K inhibitors inavolisib, alpelisib, duvelisib, and copanlisib in multi-cell type tumor spheroids
A high-throughput screen of multi-cell type tumor spheroids was designed to identify active combinations of targeted small molecules and PI3K pathway inhibitors. Complex spheroids include a stromal component modeled by human endothelial cells (HUVEC) and fibroblasts modeled by human mesenchymal stem cells (MSCs). The concentration ranges selected for each drug and investigational agent were based upon clinically achievable concentrations if the clinical Cmax of the agent was known.
Compounds. The drugs and investigational agents: inavolisib (NSC800729), alpelisib (NSC765974), duvelisib (NSC772469), copanlisib (NSC816437), ipatasertib (NSC767898), afuresertib (NSC778305), talazoparib (NSC767125), sapanisertib (NSC764658), selumetinib (NSC741078), tovorafenib (DAY101, NSC766906), vemurafenib (NSC761431), ravoxertinib (NSC781343), sotorasib (NSC818433), MRTX1133 (NSC 836407), abemaciclib (NSC 768073), palbociclib (NSC758247), venetoclax (NSC 766270), SY5609 (NSC837396), enzalutamide (NSC755605), and darolutamide (NSC825331), were obtained from the National Cancer Institute (NCI) Developmental Therapeutics Program Chemical Repository. The FDA-approved anticancer drug set is available from the NCI Developmental Therapeutics Program. […] The stock solutions were prepared in dimethyl sulfoxide (DMSO, Sigma-Aldrich, St. Louis, MO, cat. D2650) at 800-fold the tested concentration and stored at -70 degrees C prior to their use. All drugs and investigational agents were tested over a range starting from a high concentration at or near the clinical Cmax and decreasing in half-log increments. If the clinical Cmax for an agent had not been determined, the highest concentration tested was 10 microM.
Cell Culture. All cells were maintained in an incubator at 37 degrees C and 5% CO2 with 95% humidity. The PDC lines were cultured according to standard operating procedures established by the NCI PDMR (https://pdmr.cancer.gov/sops/default.htm). All PDCs were thawed and cultured in Matrigel-coated flasks prepared with a working solution of 1X Ham's F-12 nutrient mix, without supplementation (Invitrogen, Waltham, MA, cat. 11765054), 100 U/mL penicillin-streptomycin (Invitrogen, cat. 15140122), and 2.5% Matrigel (Corning Inc., Corning, NY, cat. 354248) for the first three passages. The 354836-022-R-J1-PDC, 475296-252-R-J1-PDC, and 997726-040-R-J2-PDC lines were cultured in 6A media, which includes advanced DMEM/F-12 (Thermo Fisher Scientific, cat. 12634028), 10 mM HEPES (Thermo Fisher Scientific, cat. 15630080), 1X GlutaMAX supplement (Thermo Fisher Scientific, cat. 35050061), 0.1 mg/mL primocin (InvivoGen, San Diego, CA, cat. ant-pm-2), 10% defined fetal bovine serum, heat inactivated (HyClone Laboratories Inc., Logan, UT, cat. SH30070.03HI), 50% L-WRN conditioned media (ATCC, cat. CRL-3276), 1.25 mM N-Acetyl-L-cysteine (Sigma-Aldrich, cat. A9165), 10 mM nicotinamide (Sigma-Aldrich, cat. N0636), 1X B-27 supplement (Thermo Fisher Scientific, cat. 17504044), 1X N-2 supplement (Thermo Fisher Scientific, cat. 17502048), and 10 microM Y-27632 dihydrochloride (Tocris Bioscience, Bristol, United Kingdom, cat. 1254). The 624824-186-R-J2-PDC line was cultured in 6C/Colon 1B media, which includes all 6A media components plus 50 ng/mL human EGF recombinant protein (Thermo Fisher Scientific, cat. PHG0311). […]

[1] = second compound 0.00316 µM, first compound 0.0316 µM
[2] = second compound 0.00316 µM, first compound 0.1 µM
[3] = second compound 0.01 µM, first compound 0.0316 µM
[4] = second compound 0.01 µM, first compound 0.1 µM
[5] = second compound 0.0316 µM, first compound 0.0316 µM
[6] = second compound 0.0316 µM, first compound 0.1 µM
[7] = second compound 0.1 µM, first compound 0.0316 µM
[8] = second compound 0.1 µM, first compound 0.1 µM
[9] = second compound 0.316 µM, first compound 0.0316 µM
[10] = second compound 0.316 µM, first compound 0.1 µM
[11] = second compound 1 µM, first compound 0.0316 µM
[12] = second compound 1 µM, first compound 0.1 µM
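Further: spheroids exposed to agents for 7 days before the viability read.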

CC(C)n1nc(-c2ccc3oc(N)nc3c2)c2c(N)ncnc21 + CC(Nc1ccc2c(c1)OCCn1cc(N3C(=O)OCC3C(F)F)nc1-2)C(N)=O
IC50 (second compound 0.00316 µM): 30 nM
IC50 (second compound 0.01 µM): 24.6 nM
IC50 (second compound 0.0316 µM): 7.16 nM
IC50 (second compound 0.1 µM): 0.331 nM
IC50 (second compound 0.316 µM): < 0.316 nM
IC50 (second compound 1 µM): < 0.316 nM
viability, T/C (second compound 0.00316 µM, first compound 0.000316 µM): 96.5%
viability, T/C (second compound 0.00316 µM, first compound 0.001 µM): 88.1%
viability, T/C (second compound 0.00316 µM, first compound 0.00316 µM): 75.4%
viability, T/C (second compound 0.00316 µM, first compound 0.01 µM): 72.1%
viability, T/C [1]: 50.5%
viability, T/C [2]: 16.6%
viability, T/C (second compound 0.01 µM, first compound 0.000316 µM): 85.5%
viability, T/C (second compound 0.01 µM, first compound 0.001 µM): 76.4%
viability, T/C (second compound 0.01 µM, first compound 0.00316 µM): 75%
viability, T/C (second compound 0.01 µM, first compound 0.01 µM): 69.8%
viability, T/C [3]: 44.2%
viability, T/C [4]: 19.6%
viability, T/C (second compound 0.0316 µM, first compound 0.000316 µM): 61.9%
viability, T/C (second compound 0.0316 µM, first compound 0.001 µM): 60.8%
viability, T/C (second compound 0.0316 µM, first compound 0.00316 µM): 54.4%
viability, T/C (second compound 0.0316 µM, first compound 0.01 µM): 49%
viability, T/C [5]: 31.4%
viability, T/C [6]: 16.6%
viability, T/C (second compound 0.1 µM, first compound 0.000316 µM): 52.2%
viability, T/C (second compound 0.1 µM, first compound 0.001 µM): 41.2%
viability, T/C (second compound 0.1 µM, first compound 0.00316 µM): 37.5%
viability, T/C (second compound 0.1 µM, first compound 0.01 µM): 32%
viability, T/C [7]: 22.1%
viability, T/C [8]: 11.5%
viability, T/C (second compound 0.316 µM, first compound 0.000316 µM): 31.9%
viability, T/C (second compound 0.316 µM, first compound 0.001 µM): 20.6%
viability, T/C (second compound 0.316 µM, first compound 0.00316 µM): 24.8%
viability, T/C (second compound 0.316 µM, first compound 0.01 µM): 15.8%
viability, T/C [9]: 14.4%
viability, T/C [10]: 10.2%
viability, T/C (second compound 1 µM, first compound 0.000316 µM): 17.4%
viability, T/C (second compound 1 µM, first compound 0.001 µM): 17.7%
viability, T/C (second compound 1 µM, first compound 0.00316 µM): 13.9%
viability, T/C (second compound 1 µM, first compound 0.01 µM): 11.2%
viability, T/C [11]: 11.5%
viability, T/C [12]: 5.87%

CCCS(=O)(=O)Nc1ccc(F)c(C(=O)c2c[nH]c3ncc(-c4ccc(Cl)cc4)cc23)c1F + CC(Nc1ccc2c(c1)OCCn1cc(N3C(=O)OCC3C(F)F)nc1-2)C(N)=O
IC50 (second compound 0.00316 µM): 4590 nM
IC50 (second compound 0.01 µM): 4710 nM
IC50 (second compound 0.0316 µM): 4240 nM
IC50 (second compound 0.1 µM): < 31.6 nM
IC50 (second compound 0.316 µM): < 31.6 nM
IC50 (second compound 1 µM): < 31.6 nM
viability, T/C [1]: 91.2%
viability, T/C [2]: 90.9%
viability, T/C (second compound 0.00316 µM, first compound 0.316 µM): 89%
viability, T/C (second compound 0.00316 µM, first compound 1 µM): 100%
viability, T/C (second compound 0.00316 µM, first compound 3.16 µM): 70.2%
viability, T/C (second compound 0.00316 µM, first compound 10 µM): 8.07%
viability, T/C [3]: 87.3%
viability, T/C [4]: 90%
viability, T/C (second compound 0.01 µM, first compound 0.316 µM): 89.5%
viability, T/C (second compound 0.01 µM, first compound 1 µM): 93.9%
viability, T/C (second compound 0.01 µM, first compound 3.16 µM): 70.3%
viability, T/C (second compound 0.01 µM, first compound 10 µM): 11.9%
viability, T/C [5]: 68.5%
viability, T/C [6]: 64.3%
viability, T/C (second compound 0.0316 µM, first compound 0.316 µM): 64.4%
viability, T/C (second compound 0.0316 µM, first compound 1 µM): 66.8%
viability, T/C (second compound 0.0316 µM, first compound 3.16 µM): 63.7%
viability, T/C (second compound 0.0316 µM, first compound 10 µM): 9.98%
viability, T/C [7]: 36.1%
viability, T/C [8]: 42.6%
viability, T/C (second compound 0.1 µM, first compound 0.316 µM): 43.9%
viability, T/C (second compound 0.1 µM, first compound 1 µM): 48.2%
viability, T/C (second compound 0.1 µM, first compound 3.16 µM): 38.7%
viability, T/C (second compound 0.1 µM, first compound 10 µM): 12.2%
viability, T/C [9]: 29%
viability, T/C [10]: 23.8%
viability, T/C (second compound 0.316 µM, first compound 0.316 µM): 28.5%
viability, T/C (second compound 0.316 µM, first compound 1 µM): 28.2%
viability, T/C (second compound 0.316 µM, first compound 3.16 µM): 26.6%
viability, T/C (second compound 0.316 µM, first compound 10 µM): 11%
viability, T/C [11]: 15.2%
viability, T/C [12]: 15%
viability, T/C (second compound 1 µM, first compound 0.316 µM): 17%
viability, T/C (second compound 1 µM, first compound 1 µM): 23%
viability, T/C (second compound 1 µM, first compound 3.16 µM): 20.7%
viability, T/C (second compound 1 µM, first compound 10 µM): 8.33%
